The test system of data set [1] is epidural fibrosis at laminectomy site, Lewis inbred rats. The data set is described as follows: Epidural fibrosis after lumbar laminectomy in rats, gross evaluation. It counts as in vivo, rat. Particulars: for inhibition of scar formation (in words): versus buffer control; for TOTAL SCORE 2 WEEKS: Table 4, 2 weeks post-implantation; for Bone Growth / Deep Scar / Gelfoam Appearance: score 0-3 per Table 1; for Bone Growth / Deep Scar / Gelfoam Appearance / Superficial Scar: agent-soaked GELFOAM in laminectomy site; for Superficial Scar: score 1-3 per Table 1. Also noted: TOTAL SCORE / TOTAL SCORE 2 WEEKS: scale not given here. Here is the method:
Epidural fibrosis was investigated after lumbar laminectomy in rats. In this model, a laminectomy was performed at the lumbar 3 and 5 vertebrae and then the test agent was applied to the laminectomy site. Subsequently, the laminectomy sites were examined for fibrosis by gross dissection or by histological analysis.
Laminectomies (described below) were performed at lumbar vertebrae L3 and L5 to provide auto-controls within each animal. Segments of GELFOAM® (Upjohn) soaked with experimental or control solutions were inserted into the laminectomy site. The soared GELFOAM® fragments were prepared and coded 24 hours beforehand. The GELFOAM® segments were soaked in solutions of dextran sulfate in calcium/magnesium-free phosphate buffered saline (CMF-PBS), dextran in CMF-PBS, or CMF-PBS alone. In some laminectomy sites, the GELFOAM® fragments were omitted, in order to serve as sham operations. Subsequently, the evaluation by gross dissection was done without knowledge of which solutions had been placed in which laminectomy site. Thus, the experiments were double-blind.
Lewis inbred rats were anesthetized with 4% chloral hydrate (34 mg/100 g body weight). The dorsal skin was incised and the paraspinal muscles were separated from the spinous processes of lumbar vertebrae L2 through L6. The spinous processes of L3 and L5 were removed with a rongeurs; then the vertebral lamina was removed with a micro-rongeurs creating a rectangular laminectomy defect 4×2 mm in size. After bleeding was stopped, a GELFOAM® segment was placed into the laminectomy site according to a randomized protocol. The overlying paraspinal muscles were closed over the site by suturing the superficial fascia together with resorbable 6-0 PDS II (Ethicon). The skin incision was closed with wound clips.
The animals were kept for two weeks prior to gross evaluation. At that time, the rats were anesthetized with 4% chloral hydrate and the wound was reopened by incising, the skin and separating the paraspinal muscles. The quality and quantity of scar tissue above the laminectomy site, the appearance of the GELFOAM® and the extent of new bone growth was evaluated by visual and tactile observation during sharp dissection. After the gross evaluation was complete, the rats were euthanized by anesthesia overdose.
All gross evaluations were made prior to breaking the treatment code, but the observations have been tabulated and presented below according to treatment group.

Another data set can be described thus: Sulfur content. It counts as physicochemical. The settings on record: by weight.
The subject of data set [2] is DRG explants, neuronal and non-neuronal cell migration. The data set is described as follows: Explant outgrowth assay. It counts as cell-based, chick. As to the method: Primary Explant Cultures. Dorsal root ganglia (DRGs) were obtained from E8-E9 chick embryos. The dissection was carried out in CMF-HBSS. The spinal cord was exposed and DRGs were removed and cleaned from surrounding connective tissue. DRGs were plated in DMEM/F12, 10% fetal calf serum containing 50 ng/ml nerve growth factor (NGF). The DRGs were seeded on laminin (LN, Gibco Laboratories) or poly-L-lysine (PLL, Sigma) coated dishes.
The relative outgrowth, compared to outgrowth of untreated controls, was rated as follows: 1: 0-19% of control; 2: 20-39% of control; 3: 40-59% of control; 4: 60-79% of control; 5: 80-100% of control.
The effect of heparin and dextran sulfate on cell migration from explant cultures of chick DRGs was tested. DRGs were plated in culture dishes precoated with a substratum of either PLL or LN and grown in culture medium containing different concentrations of heparin, dextran sulfate or dextran solutions. In the absence of a test compound, within 24-48 hours a halo of neuritic outgrowth and migrating non-neuronal cells, i.e., fibroblasts and Schwann cells, was evident around the ganglia (FIG. 6A). The size of the cellular halo migrating from the DRG explant was reduced when the explant was grown in the presence of 0.4 mg/ml heparin (FIG. 6B). […] In contrast, 0.4 mg/ml dextran had no effect (FIG. 6D). The size of the cellular halo emanating from DRGs grown in the presence of test compounds was evaluated relative to untreated control and rated as described in Section 8.1.3, supra (Table 9).

A further data set deals with PC12 cells. In words: PC12 neurite outgrowth assay. It counts as cell-based. Particulars: NGF-primed PC12 cells; scored 2 days later. As to the method: Cell lines. Murine 3T3 fibroblast (NIH), rat C6 glioma (Paganetti et al., 1988, J. Cell Biol. 107:2281) and MCG-28 young immortalized mouse astrocyte (a murine neonatal astrocyte line immortalized with SV-40) were grown in medium composed of Dulbecco's modified Eagle medium (DMEM), 10% fetal calf serum (Gibco Laboratories), and penicillin G/streptomycin (100 units/ml, 100 μg/ml respectively, Gibco Laboratories). For the stripe assay, confluent plates were disaggregated with 0.05% trypsin, 0.53 mM EDTA (Gibco Laboratories) and seeded at 200,000 cells/ml (3 ml/plate). For the cell adhesion assays, confluent cultures were disaggregated with 0.03% EDTA and plated in a 96-well microtiter plate at 20,000-100,000 cells per well. PC12 cells, a pheochromocytoma cell line (Green L. A. & Tischler A. S., 1976, Proc. Natl. Acad. Sci. U.S.A. 73:2424), were grown in medium containing Roswell Park Memorial Institute (RPMI) medium 1640 (Gibco Laboratories), 10% horse serum, 5% fetal calf serum (FCS), and penicillin G/streptomycin (100 units/ml, 100 μg/ml respectively, Gibco Laboratories). The cells were disaggregated with 0.03% EDTA and plated in a 96-well microtiter plate at 3,000 cells per well.
PC12 cells were primed with 20 ng/ml NGF for 8 days, collected with 0.03% EDTA in PBS and plated in precoated 96-well microtiter plates at 3,000 cells/well. The microtiter plates were precoated with poly-L-lysine and blocked with adhesion medium (1% BSA in RPMI) for 20 min prior to addition of cells. The cells were grown in adhesion medium supplemented with 20 ng/ml NGF. The cells were allowed to attach for 2 hr prior to the addition of the test compounds (Akeson and Warren, 1986, Exp. Cell Res. 162:347-362).
PC-12 cells primed with NGF were plated in 96-well plates. Test solutions were added to the wells and the cells were scored 2 days later as (+) if neurites of at least two cell bodies diameter in length were present on the majority of the cells, and (−) if no or only short processes were present. […] The compounds tested included GAGs (heparin, dermatan sulfate, chondroitin sulfate A, keratan sulfate and hyaluronic acid), sulfated carbohydrate polymers (dextran sulfate and pentosan polysulfate), and another polyanionic polymer (e.g., alginic acid).

The mark [3] stands for this setting: 0.5 μg/ml in culture medium, PLL substratum.
The mark [4] stands for this setting: 1 μg/ml in culture medium, PLL substratum.
Where [5] appears, read: 1.25 μg/ml in culture medium, LN substratum.
Setting [6] is: 1.25 μg/ml in culture medium, PLL substratum.
The mark [7] stands for this setting: 2 μg/ml in culture medium, PLL substratum.
[8] abbreviates: 10 μg/ml in culture medium, LN substratum.
[9] abbreviates: 10 μg/ml in culture medium, PLL substratum.
Setting [10] is: 50 μg/ml in culture medium, LN substratum.
[11] abbreviates: 50 μg/ml in culture medium, PLL substratum.
The mark [12] stands for this setting: 200 μg/ml in culture medium, LN substratum.
Where [13] appears, read: 200 μg/ml in culture medium, PLL substratum.
Where [14] appears, read: 400 μg/ml in culture medium, LN substratum.
[15] abbreviates: 400 μg/ml in culture medium, PLL substratum.
[16] abbreviates: Table 2, sum of four criteria, lower = greater inhibition of scar formation, two weeks.
The mark [17] stands for this setting: 2 μg/ml in culture medium, LN substratum.

Experimental findings from patent US6756362B2, “Methods and compositions based on inhibition of cell invasion and fibrosis by anionic polymers” (priority 1991, dated 2004) are described below.

Regarding Heparin, the “inhibition of scar formation (in words)” value in data set [1] (20 mg/ml) is on record as “marginal improvement”. Besides, in data set [1] (Table 5, agent 20 mg/ml), the “TOTAL SCORE” value is listed as 7.3 ± 2.5. For the same substance, in data set [1] (rat, in vivo), the “hemorrhage and hematoma formation at the laminectomy site” value was “caused hemorrhage and hematoma formation”. Further, in “Sulfur content”, the “Sulfur Content” value stood at 11.8%. The “Cellular Migration from DRG Explants, rating relative to untreated control” value was 5 (5 = 80-100% of control) in data set [2] (setting [3]); 4 (4 = 60-79%) in data set [2] (setting [4]); 5 (5 = 80-100% of control) in data set [2] (setting [5]); 2 (2 = 20-39%) in data set [2] (setting [6]); 2 (2 = 20-39%) in data set [2] (setting [7]); 5 (5 = 80-100% of control) in data set [2] (setting [8]). Besides, the “Cellular Migration from DRG Explants, rating relative to untreated control” value in data set [2] (setting [9]) is 2 (2 = 20-39%); in data set [2] (setting [10]), 5 (5 = 80-100% of control); in data set [2] (setting [11]) it was 2 (2 = 20-39%); in data set [2] (setting [12]), 5 (5 = 80-100% of control); in data set [2] (setting [13]), 2 (2 = 20-39%); in data set [2] (setting [14]), 5 (5 = 80-100% of control). Moreover, the “Cellular Migration from DRG Explants, rating relative to untreated control” value in data set [2] (setting [15]) is reported as 1 (1 = 0-19%). Moreover, the “IC100, minimum concentration causing 100% inhibition of neurite outgrowth” value in the data set on PC12 cells turned out to be 2.6e-07 g/mL.

In the case of dextran [reference compound], the “TOTAL SCORE” value is reported as 8.8 ± 2.4 in data set [1] (setting [16]) and 8.8 ± 2.4 in data set [1] (Table 5, agent 20 mg/ml). In data set [1] (20 mg/ml), the “TOTAL SCORE 2 WEEKS” value came to 9.5 ± 2.4. Moreover, the “Bone Growth” value in data set [1] (two weeks) is 1.6 ± 0.9. In addition, in data set [1] (two weeks), the “Deep Scar” value was 2.3 ± 0.9. Also, the “Gelfoam Appearance” value in data set [1] (two weeks) is recorded as 2.2 ± 0.8. Moreover, the “Superficial Scar” value in data set [1] (two weeks) is reported as 2.7 ± 0.5. Further, in the data set “Sulfur content”, the “Sulfur Content” value was determined as 0%. Also, the “Cellular Migration from DRG Explants, rating relative to untreated control” value in data set [2] (setting [17]), in data set [2] (setting [8]), in data set [2] (setting [10]), in data set [2] (setting [11]), in data set [2] (setting [12]) and in data set [2] (setting [13]) was 5 (5 = 80-100% of control) throughout. For the same substance, the “Cellular Migration from DRG Explants, rating relative to untreated control” value in data set [2] (setting [14]) and in data set [2] (setting [15]) was 5 (5 = 80-100% of control) in each case. The “IC100, minimum concentration causing 100% inhibition of neurite outgrowth” value in the data set with PC12 cells was more than 0.001 g/mL.

Consider dextran sulfate, for which the “inhibition of scar formation (in words)” value in data set [1] (20 mg/ml) was “potent inhibition”. The “TOTAL SCORE” value in data set [1] (setting [16]) is 1.7 ± 0.9; in data set [1] (Table 3 dose response, 0.2 mg/ml) it was 7.8 ± 1.9; in data set [1] (Table 3 dose response, 2 mg/ml) it was 3.0 ± 2.3; in data set [1] (Table 3 dose response, 20 mg/ml), 1.3 ± 0.5; in data set [1] (Table 5, agent 20 mg/ml) it was 1.7 ± 0.9. Further, the “TOTAL SCORE 2 WEEKS” value in data set [1] (20 mg/ml) was determined as 1.2 ± 0.5. Besides, the “hemorrhage and hematoma formation at the laminectomy site” value in data set [1] (rats, applied at laminectomy site) was “not seen”. For the same substance, in data set [1] (two weeks), the “Bone Growth” value stood at 0.1 ± 0.3. In data set [1] (two weeks), the “Deep Scar” value is on record as 0.3 ± 0.5. The “Gelfoam Appearance” value in data set [1] (two weeks) turned out to be 0.1 ± 0.3. For the same substance, the “Superficial Scar” value in data set [1] (two weeks) is reported as 1.2 ± 0.4. In addition, the “Sulfur Content” value in the data set “Sulfur content” worked out at 15.3%. For the same substance, the “Cellular Migration from DRG Explants, rating relative to untreated control” value in data set [2] (setting [3]) was 5 (5 = 80-100% of control); in data set [2] (setting [4]), 3 (3 = 40-59%); in data set [2] (setting [5]), 5 (5 = 80-100% of control); in data set [2] (setting [6]), 2 (2 = 20-39%); in data set [2] (setting [17]), 3 (3 = 40-59%); in data set [2] (setting [7]), 1 (1 = 0-19%). In addition, the “Cellular Migration from DRG Explants, rating relative to untreated control” value in data set [2] (setting [8]), in data set [2] (setting [9]), in data set [2] (setting [10]), in data set [2] (setting [11]), in data set [2] (setting [12]) and in data set [2] (setting [13]) was 1 (1 = 0-19%) throughout. In addition, the “Cellular Migration from DRG Explants, rating relative to untreated control” value in data set [2] (setting [14]) and in data set [2] (setting [15]) was 1 (1 = 0-19%) each time. Further, the “IC100, minimum concentration causing 100% inhibition of neurite outgrowth” value in the data set on PC12 cells amounted to 5.2e-07 g/mL.
